Experimental data: patent US20210137938A1, “NUPR1 INHIBITION FOR TREATING CANCER” (INSTITUT NATIONAL DE SANTE ET DE LA RECHERCHE MEDICALE …, priority 2018, published 2021)
Values belong to the compound of their own block, whether it stands above or below them.

Columns and labels:
NUPR1 [1] = target: T1, NUPR1 (Homo sapiens, UniProt O60356); test: Isothermal titration calorimetry of NUPR1-compound interaction; details: ITC, 25° C, sodium phosphate 20 mM pH 7.0, 1% DMSO, single binding site model; read-out: dissociation constant (Kd)
T1 sequence (O60356 1-82): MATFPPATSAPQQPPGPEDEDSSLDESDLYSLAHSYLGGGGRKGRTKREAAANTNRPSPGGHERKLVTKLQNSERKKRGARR
Description: (c) ITC studies: Target engagement for the different compounds was assessed by isothermal titration calorimetry (the gold standard technique in binding affinity determination), which allowed the thermodynamic characterization of the NUPR1-compound interaction.
Titrations were performed in an AutoiTC200 (MicroCal, Malvern Instruments). A solution of NUPR1 (20 μM, in sodium phosphate 20 mM pH 7.0, 1% DMSO) in the calorimetric cell was titrated with a solution of corresponding compound (200 μM, in sodium phosphate 20 mM pH 7.0, 1% DMSO) located in the injecting syringe.
Because compounds were initially dissolved as concentrated (˜10 mM) stock solutions in pure DMSO, a residual percentage of DMSO was present in the final solutions. […] A standard protocol was employed: 19 titrant injections with 2 μL were programmed with a spacing of 150s, a stirring speed of 750 rpm, and a reference power of 10 μcal/s. From the thermogram (thermal power as a function of time), the binding isotherm (ligand-normalized heats as a function of the molar ratio) was obtained through integration of the individual heat effect associated with each ligand injection. Non-linear least squares regression analysis employing a model considering a single binding site in NUPR1 allowed the estimation of the binding parameters: dissociation constant, biding enthalpy, and stoichiometry.

[2] = system: 02.063, LIPC, Foie8b and HN14 cells; test: Chemosensitivity / PrestoBlue cell viability, four primary pancreatic cancer-derived cells; format: cell-based, human; details: 72 h, 0 to 100 μM, FIG. 1
Description: The biological effect in vitro of the compounds A, B and C were then studied on four well characterized primary pancreatic cancer-derived cells 02.063 and LIPC (Basal subtype), Foie8b (derived from a liver metastasis) and HN14 (Classical subtype).
(§1) The cells were screened for chemosensitivity to these compounds for 72 h with increasing concentrations of the compounds ranging from 0 to 100 μM in 96-well plates. Trifluoperazine was used as the reference compound. Each experiment was performed in triplicate and repeated at least three times. Cell viability was estimated after addition of the PrestoBlue cell viability reagent (Life Technologies) for 3 h.

[3] = Neurological effect on treated mice; format: in vivo
Description: Accordingly, Trifluoperazine seemed an interesting compound as anti-cancer agent. However, as indicated in the examples of the present application, increasingly high doses of Trifluoperazine tested in vivo led to neurological effects on immunodeficient mice implanted with human pancreatic cancer cells-derived xenografts.
A similar experiment was performed with Trifluoperazine (data not shown). […] Although relatively efficient as an anticancer agent, the neurological effect found in mice left Trifluoperazine unusable in clinics.

NUPR1 [4] = target: T1, NUPR1; details: Neira et al., 2017; cited from earlier work
02.063 cells xenograft = test: Mice xenografted with 02.063 cells, tumor volume; format: in vivo, NMRI-Nude mice
Description: FIG. 2: Variation of the size the tumor of mice xenografted with 02.063 cells in the absence of any treatment (control—administration of a volume of vehicle solution equivalent to the volume of treatment administered to the treated mice) or treated with compound C of the invention (daily treatment of 30 days with 5 mg/kg of this compound). Day 0 on this figure corresponds to the day when the tumors reached 200 mm^3 (so around 1 week after the injection of 15×10^6 cells).
02.063 cells were inoculated subcutaneously (15×10^6 cells) in NMRI-Nude 8-week old mice. When tumors reached 200 mm^3, (around 1 week after the injection), a daily treatment was started for 30 days with 5 mg/kg of the compound C and the control group receiving an equivalent volume of vehicle solution (6 mice in control group, 6 mice treated with compound C).

[5] = system: MiaPaCa-2, ANOR, AOIPC, 02-136, 01-046, NH01, LIPC, HN14, 01-008 and Foie8b cells; test: Chemosensitivity / PrestoBlue cell viability, ten primary pancreatic cancer-derived cells; format: cell-based; details: 72 h, 0 to 100 μM, FIG. 4
From the text: The biological effect in vitro of the compounds C, I, F, K, L, M, N, D, G and J were studied on ten well characterized primary pancreatic cancer-derived cells: MiaPaCa-2 (Classical subtype), ANOR (Classical subtype), AOIPC (Basal subtype), 02-136 (Basal subtype), 01-046 (Classical subtype), NH01 (Classical subtype), LIPC (Basal subtype), HN14 (Classical subtype), 01-008 (Basal subtype) and Foie8b (derived from a liver metastasis).
The protocol applies was identical to the one previously indicated, i.e.:
as §1, with “plates.” for “plates. Trifluoperazine was used as the reference compound.”

[6] = system: MDA-MB-231 (Breast cancer); test: PrestoBlue cell viability, MDA-MB-231; format: cell-based; details: Homo sapiens, MDA-MB-231, 72 h
Description: as §1
(§2) The effect of compound C was also evaluated by treating cellular lines derived from different tumors with increasing concentrations of this compound. The protocol applied is the same as the one mentioned above for cell lines 02-063, HN14, LIPC and Foie8b.

[7] = system: HEPG2 (Hepatocellular carcinoma); test: PrestoBlue cell viability, HEPG2; format: cell-based
Description: as §1, §2

[8] = 5 mg/kg daily for 30 days, from tumors of 200 mm^3, FIG. 2

Kd (NUPR1 [1]): 7.1 µM
Structure (SMILES): CCN1CCN(CCCN2c3ccccc3Sc3ccc(C(F)(F)F)cc32)CC1 [Compound B]

Kd (NUPR1 [1]): 11 µM
Structure (SMILES): CCN1CCN(CCCN2c3ccccc3Sc3ccc(C(F)(F)F)cc32)CC1 [Compound A]
cell death induced / efficiency to kill pancreatic cancer cells, compared with Trifluoperazine [2]: close to that induced by Trifluoperazine

Structure (SMILES): CN1CCN(CCCN2c3ccccc3Sc3ccc(C(F)(F)F)cc32)CC1 [Trifluoperazine, reference compound]
neurological effect ([3]; increasingly high doses, xenografted immunodeficient mice): neurological effect on treated mice such has lethargy
dissociation constant between NUPR1 and Trifluoperazine (NUPR1 [4]): low micromolar range
tumor growth (02.063 cells xenograft; higher dose, data not shown): rapidly, and almost completely, stopped
tumor volume increase compared to the control (02.063 cells xenograft; lowest dose, same period, data not shown): 50%

IC50 [6]: 14.1 µM
Kd (NUPR1 [1]): 2.1 µM
IC50 ([7]; HEPG2, 72 h): 0.254 µM
IC50 ([7]; Homo sapiens, HepG2, 72 h): 0.25 µM
Structure (SMILES): CN(C)CCN1CCN(CCCN2c3ccccc3Sc3ccc(C(F)(F)F)cc32)CC1 [Compound C]
cell death induced / efficiency to kill pancreatic cancer cells, compared with Trifluoperazine [2]: most efficient compound to kill the pancreatic cancer cells
efficiency relative to Trifluoperazine (times more efficient) [2]: around 10 times
neurological effect ([3]; treatment of xenografted mice, including chronic treatment with 10 mg/kg): did not show any appreciable neurological effect
size of the tumors (02.063 cells xenograft; [8]): decreased progressively to almost disappear after 20 days of treatment
tumor growth (02.063 cells xenograft; [8]): stopped the growth almost immediately
induction of cell death in the different cancer cell lines [5]: particularly efficient (low IC50)
